{"source": "patent US8362074B2", "about": "“Synergistic insecticidal compositions” (priority 1999, dated 2013)", "key": {"[1]": {"system": "adult male German cockroaches (Blattella germanica)", "assay": "Treated dog chow bait test on adult male German cockroaches", "format": "in vivo", "conditions": "1.00 % active ingredient", "experimental": "In this evaluation, adult male German cockroaches (Blattella germanica) are used. For each test, a 4.0 g portion of ground Purina Dog Chow (Hi-Pro Glo®) is treated with an acetone solution of test compound alone or in combination with a second test compound. After treatment, the acetone is evaporated and the treated dog chow is placed in a ¾ oz plastic cup which is placed in a harborage made of folded sheets of blotter paper placed in a plastic box (16″ L×11″ W×6″ H). The plastic box (test arena) is also fitted with a 1 oz narrow mouth bottle with 2 dental wicks inserted at the mouth. A control box is prepared in the same manner using ground dog chow which has been treated with reagent grade acetone. Each treatment is replicated three times. Into each test arena are placed 20 healthy adult male cockroaches which have been reared in an insectary. The test arenas are then stored at 76° F. and mortality is determined daily by visual examination."}, "[2]": {"system": "Helicoverpa zea (cotton bollworm) larvae", "assay": "Treated artificial diet surface test on cotton bollworm larvae", "format": "in vivo", "experimental": "In this evaluation, Helicoverpa zea (cotton bollworm) larvae are obtained from a laboratory colony. Test compounds are dissolved in 1:1 v/v acetone/water. Plastic bioassay trays (C-D International, Pitman, N.J.) are used as test arenas. Each tray contains 32 open-faced wells, 4.0×4.0×2.5 cm. A portion (5 ml) of a wheat germ-soybean flour-based artificial diet (Southland Products, Lake Village, Ark.) is poured into each well. After the diet hardened, 0.4 ml of test solution is pipetted onto the diet surface in each well. Test solutions are evenly spread over surfaces of diet by picking up the tray and gently tilting it from side to side. Trays are then held in a vented area for about 2 h, until water is no longer pooled on diet surfaces. A single 4-day-old H. zea larva is then placed on the surface of diet in each well. After larval infestation, each well is covered with an adhesive, vented, clear plastic sheet.\nAll test arenas are held under constant fluorescent light and a temperature of about 27° C. for duration of the assay. Larval mortality is determined at 2, 3, 4 and 7 days after treatment. […] A total of 32 insects were tested for each treatment."}}}
{"smiles": "CC1(C)CNC(=NN=C(/C=C/c2ccc(C(F)(F)F)cc2)/C=C/c2ccc(C(F)(F)F)cc2)NC1", "note": "[Compound B, hydramethylnon]", "values": [{"measurement": "mortality at 1 % strength", "setting": "[1]; 72 h, 3 days after treatment", "value": 0, "unit": "%"}, {"measurement": "mortality at 1 % strength", "setting": "[1]; 96 h, 4 days after treatment", "value": 5, "unit": "%"}, {"measurement": "mortality at 1 % strength", "setting": "[1]; 120 h, 5 days after treatment", "value": 28.3, "unit": "%"}, {"measurement": "mortality at 1 % strength", "setting": "[1]; 144 h, 6 days after treatment", "value": 71.7, "unit": "%"}, {"measurement": "mortality at 1 % strength", "setting": "[1]; 168 h, 7 days after treatment", "value": 90, "unit": "%"}, {"measurement": "mortality at 1 % strength", "setting": "[1]; 192 h, 8 days after treatment", "value": 93.3, "unit": "%"}, {"measurement": "% Mortality", "setting": "[2]; 100 OB/ml, 2 days after treatment", "value": 3.1, "unit": "%"}, {"measurement": "% Mortality", "setting": "[2]; 100 OB/ml, 3 days after treatment", "value": 3.1, "unit": "%"}, {"measurement": "% Mortality", "setting": "[2]; 100 OB/ml, 4 days after treatment", "value": 3.1, "unit": "%"}, {"measurement": "% Mortality", "setting": "[2]; 100 OB/ml, 7 days after treatment", "value": 15.6, "unit": "%"}, {"measurement": "% Mortality", "setting": "[2]; 500 OB/ml, 2 days after treatment", "value": 0.0, "unit": "%"}, {"measurement": "% Mortality", "setting": "[2]; 500 OB/ml, 3 days after treatment", "value": 9.4, "unit": "%"}, {"measurement": "% Mortality", "setting": "[2]; 500 OB/ml, 4 days after treatment", "value": 18.8, "unit": "%"}, {"measurement": "% Mortality", "setting": "[2]; 500 OB/ml, 7 days after treatment", "value": 40.6, "unit": "%"}, {"measurement": "% Mortality", "setting": "[2]; 1000 OB/ml, 2 days after treatment", "value": 3.1, "unit": "%"}, {"measurement": "% Mortality", "setting": "[2]; 1000 OB/ml, 3 days after treatment", "value": 34.4, "unit": "%"}, {"measurement": "% Mortality", "setting": "[2]; 1000 OB/ml, 4 days after treatment", "value": 50.5, "unit": "%"}, {"measurement": "% Mortality", "setting": "[2]; 1000 OB/ml, 7 days after treatment", "value": 62.5, "unit": "%"}]}
